# Measurements taken from patent US20220235343A1, “NOVEL ADP-RIBOSYL CYCLASE AND INHIBITOR THEREOF” (INDUSTRIAL COOPERATION FOUNDATION CHONBUK NATIONAL …, priority 2019, published 2022).
# Key:
# [1] = test system: diabetic renal disease mouse model (STZ, C57BL/6J mice); assay: Blood glucose, kidney-to-body weight ratio, creatinine clearance rate and urine albumin level in STZ renal disease mouse model; assay type: in vivo; conditions: STZ+DCQA group vs STZ, DCQA 9 μg/mL 100 μL intraperitoneally every day for 6 weeks
# Description: The blood glucose, kidney-to-body weight ratio, creatinine clearance rate and urine albumin level in a renal disease mouse model were measured by the method reported by Kim S Y et al. [Kim S Y, Park K H, Gul R, Jang K Y, Kim U H. Am. J. Physiol. Renal Physiol. 296: F291-F297, 2009]
# Specifically, 0.2 mL of 50 mM citrate buffer (pH 4.8) (control group and DCQA group) or 200 μL of 5 mg/mL streptozotocin (STZ, Sigma-Aldrich (USA)) dissolved in 50 mM citrate buffer (STZ group and STZ+DCQA group) was intraperitoneally injected to C57BL/6J mice. Blood glucose was measured from day 2 after the STZ injection and the mice whose blood glucose level was 300 mg/dL were divided into an STZ group and an STZ+DCQA group. […] On the last day, the mouse was put in a metabolic cage and urine was collected for 24 hours.
# Then, the body weight and blood glucose of the mouse were measured (FIG. 6A). In addition, in order to investigate the possibility as a therapeutic agent for a renal disease, the mouse was sacrificed and serum and kidney were taken. After measuring kidney-to-body weight ratio (FIG. 6B), some of the kidney was fixed in 10% formalin for fluorescent staining and H&E staining, and the remainder was subjected to ADPR cyclase activity and cADPR concentration measurement. Creatinine clearance rate was calculated by measuring the creatinine levels in urine and serum using a creatinine assay kit (Bioassay Systems, USA) (FIG. 6C), and urine albumin level was measured using an albumin assay kit (Bioassay Systems, USA) (FIG. 6D).
# [2] = test system: TGF-β1, fibronectin and collagen IV in kidney tissue; assay: Expression of TGF-β1, fibronectin and collagen IV in kidney tissue of renal disease mouse model (immunofluorescence); assay type: in vivo; conditions: STZ mice, DCQA i.p. every day for 6 weeks, FIG. 8
# Description: The change in the expression of TGF-β1, fibronectin and collagen IV in the kidney tissue of a renal disease mouse model was measured by the method reported by Kim S Y et al. [Kim S Y, Park K H, Gul R, Jang K Y, Kim U H. Am. J. Physiol. Renal Physiol. 296: F291-F297, 2009].
# Specifically, 0.2 mL of 50 mM citrate buffer (pH 4.8) (control group and DCQA group) or 200 μL of 5 mg/mL streptozotocin (STZ, Sigma-Aldrich (USA)) dissolved in 50 mM citrate buffer (STZ group and STZ+DCQA group) was intraperitoneally injected to C57BL/6J mice. Blood glucose was measured from day 2 after the STZ injection and the mice whose blood glucose level was 300 mg/dL were divided into an STZ group and an STZ+DCQA group. […] In order to investigate the possibility as a therapeutic agent for a renal disease, the mouse was sacrificed and serum and kidney were taken. Some of the extracted kidney was fixed in 10% formalin. The kidney tissue fixed in 10% formalin was cut into kidney tissue sections on a slide glass using a cryostat microtome. The kidney tissue sections were washed with a TTBS (Tris-buffered saline (TBS) with 0.1% Tween 20) buffer and then incubated with a TTBS buffer containing 1% bovine serum albumin (BSA) for 1 hour. The tissues were reacted with primary antibodies (TGF-β1 (Santa Cruz, USA), fibronectin (Santa Cruz, USA) and collagen IV (Abcam, UK)) diluted in a TTBS buffer containing 1% bovine serum albumin (BSA) to 1:200 at 4° C. for 12 hours or longer. After washing the tissues that reacted with the primary antibodies 3 times with a TTBS buffer, they were reacted with FITC-labeled secondary antibodies diluted in a TTBS buffer to 1:200 in the dark at room temperature for 1 hour. Then, after washing 3 times with a TTBS buffer, a cover glass was attached using a mounting solution. The stained kidney tissue was observed using a fluorescence microscope (Carl Zeiss, Germany) for observing green fluorescence.
# [3] = target: T1, new ADP-ribosyl cyclase (ADPRC) of SEQ ID NO 1 (Mus musculus, UniProt P14094); assay: Inhibition of NAD glycohydrolase (NADase) activity of new ADPRC; assay type: biochemical; conditions: as compared to the control group; ε-NAD substrate, 37° C. 1 hour; inhibitor concentration not given; FIG. 5
# T1 construct: FLAG (N); made in house; host or cells: HEK293 cells or MES13 cells (transient transfection)
# Description: In order to investigate the ADP-ribosyl cyclase (ADPRC) activity of SEQ ID NO 1, a FLAG-ADPRC plasmid was prepared by ligating a cDNA sequence encoding ADPRC into a FLAG-CMV-2 vector and the overexpression of new ADPRC was induced by treating HEK293 cells or MES13 cells using a transfection reagent. The overexpressed new ADPRC was lysed with a lysis buffer. 45 μL of the lysed sample was treated with 5 μL of 2 mM ε-NAD (nicotinamide 1,N6-ethenoadenine dinucleotide) and incubated at 37° C. for 1 hour. Then, the enzyme-substrate reaction was stopped by treating with 50 μL of 10% trichloroacetic acid. After centrifuging for 10 minutes and adding 80 μL of the supernatant to 720 μL of 0.1 M sodium phosphate buffer, absorbance was measured at 297 nm (excitation) and 410 nm (emission) with a fluorescence spectrometer.
# In order to find an inhibitor which inhibits the activation of new ADP-ribosyl cyclase (ADPRC) of SEQ ID NO 1, 5 μL of each of 4,4′-dihydroxyazobenzene (4-DHAB, TCI (Japan)), 2,2′-dihydroxyazobenzene (2-DAB, Sigma-Aldrich (USA)), 2-(3,4-dihydroxyphenyl)-3,5,7-trihydroxychromen-4-one (Quercetin, Sigma-Aldrich (USA)) and San4825 (synthesized by Kannt A et al. [Kannt A, Sicka K, Kroll K, Kadereit D, Gogelein H. Naunyn. Schmiedebergs. Arch. Pharmacol. 385: 717-727, 2012], China) and 2-(1,3-benzoxazol-2-ylamino)-1-methylquinazoline-4(1H)-one (2-BMQ) and 1,4-dicaffeoylquinic acid (1,4-DCQA, Biopurify (China), hereinafter DCQA), which were newly found through screening, was reacted with 40 μL of new ADPRC in iced water for 15 minutes. Then, reaction was conducted at 37° C. for 1 hour after treating with 5 μL of 2 mM ε-NAD (nicotinamide 1,N6-ethenoadenine dinucleotide). Then, the enzyme-substrate reaction was stopped by treating with 50 μL of 10% trichloroacetic acid. After centrifuging for 10 minutes and adding 80 μL of the supernatant to 720 μL of 0.1 M sodium phosphate buffer, absorbance was measured at 297 nm (excitation) and 410 nm (emission) using a fluorescence spectrometer.
structure (smiles),measurement,setting,value
"O=C(/C=C/c1ccc(O)c(O)c1)OC1[C@H](O)CC(OC(=O)/C=C/c2ccc(O)c(O)c2)(C(=O)O)C[C@H]1O (some centres unmarked) [DCQA, 1,4-dicaffeoylquinic acid]",blood glucose,[1]; FIG. 6A,did not show decreased in blood glucose
same,kidney to body weight,[1]; FIG. 6B,significant decrease in kidney to body weight
same,creatinine clearance rate,[1]; FIG. 6C,significant increase in creatinine clearance rate
same,urine albumin level,[1]; FIG. 6D,significant decrease in the urine albumin level
same,"expression level of TGF-β1 increased by STZ, decreased by DCQA",[2],to the level of the control group
same,"expression level of collagen IV increased by STZ, decreased by DCQA",[2],to the level of the control group
same,"expression level of fibronectin increased by STZ, decreased by DCQA",[2],to the level of the control group
same,NAD glycohydrolase (NADase) activity inhibited,[3],79.64%
